{
  "source": "PubChem BioAssay (NCI)",
  "assay_in_all_cases": "NCI anticancer screen, dose series, 48 h",
  "key": {"[1]": {"test_system": "ACHN renal"}, "[2]": {"test_system": "MCF7 breast"}, "[3]": {"test_system": "CCRF-CEM leukemia"}, "[4]": {"test_system": "U251 CNS"}, "[5]": {"test_system": "SNB-75 CNS"}, "[6]": {"test_system": "HS 578T breast"}, "[7]": {"test_system": "MDA-MB-231 breast"}, "[8]": {"test_system": "SK-MEL-5 melanoma"}, "[9]": {"test_system": "NCI-H226 lung"}, "[10]": {"test_system": "HOP-62 NSCLC"}},
  "note": "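Where inhibition never reached the appropriate level, the endpoint shown equals the highest concentration tested. Otherwise, values were interpolated linearly from a five-concentration, 48-hour dose response in 96-well plates. The concentration for 50% growth inhibition is given as GI50. TGI is the concentration that stops growth completely.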 Where a SMILES comes first, the peptide text is derived from it.",
  "data": [
    {"smiles": "CNC1Cc2c[nH]c3cccc(c23)C12C=C(C)C(=O)O2", "note": "(configuration not stated)", "values": [
      {"measurement": "TGI", "setting": "[1]", "result": "> 100", "unit": "µM"},
      {"measurement": "TGI", "setting": "[2]", "result": "> 100", "unit": "µM"},
      {"measurement": "TGI", "setting": "[3]", "result": "> 100", "unit": "µM"},
      {"measurement": "TGI", "setting": "[4]", "result": "> 100", "unit": "µM"},
      {"measurement": "TGI", "setting": "[5]", "result": "> 100", "unit": "µM"},
      {"measurement": "TGI", "setting": "[6]", "result": "> 100", "unit": "µM"},
      {"measurement": "TGI", "setting": "[7]", "result": "> 100", "unit": "µM"},
      {"measurement": "TGI", "setting": "[8]", "result": "> 100", "unit": "µM"},
      {"measurement": "TGI", "setting": "[9]", "result": "> 100", "unit": "µM"},
      {"measurement": "TGI", "setting": "[10]", "result": "> 100", "unit": "µM"}
    ]},
    {"smiles": "NC(CCOCCP(=O)(O)CCC1C=CC=CC1)C(=O)O", "note": "(configuration not stated)", "values": [
      {"measurement": "TGI", "setting": "[1]", "result": "> 100", "unit": "µM"},
      {"measurement": "TGI", "setting": "[2]", "result": "> 100", "unit": "µM"},
      {"measurement": "TGI", "setting": "[3]", "result": "> 100", "unit": "µM"},
      {"measurement": "TGI", "setting": "[4]", "result": "> 100", "unit": "µM"},
      {"measurement": "TGI", "setting": "[5]", "result": "> 100", "unit": "µM"},
      {"measurement": "TGI", "setting": "[6]", "result": "> 100", "unit": "µM"},
      {"measurement": "TGI", "setting": "[7]", "result": "> 100", "unit": "µM"},
      {"measurement": "TGI", "setting": "[8]", "result": "> 100", "unit": "µM"}
    ]},
    {"smiles": "CC[C@@]1(O)C(=O)OCc2c1cc1n(c2=O)Cc2cc3ccccc3nc2-1", "values": [
      {"measurement": "TGI", "setting": "[1]", "result": 0.191, "unit": "µM"},
      {"measurement": "TGI", "setting": "[2]", "result": 0.203, "unit": "µM"},
      {"measurement": "TGI", "setting": "[3]", "result": 0.0159, "unit": "µM"},
      {"measurement": "GI50", "setting": "[4]", "result": "< 0.0129", "unit": "µM"},
      {"measurement": "TGI", "setting": "[4]", "result": 0.769, "unit": "µM"},
      {"measurement": "TGI", "setting": "[5]", "result": 0.314, "unit": "µM"},
      {"measurement": "TGI", "setting": "[6]", "result": "> 100", "unit": "µM"},
      {"measurement": "TGI", "setting": "[8]", "result": 0.181, "unit": "µM"},
      {"measurement": "GI50", "setting": "[9]", "result": 0.0202, "unit": "µM"},
      {"measurement": "TGI", "setting": "[9]", "result": 0.177, "unit": "µM"},
      {"measurement": "TGI", "setting": "[10]", "result": 0.132, "unit": "µM"}
    ]},
    {"smiles": "C[Si](C)(C)c1ccc(-c2c3ccc(-c4cc(Br)cc(Br)c4)nc3nc3nc(-c4cc(Br)cc(Br)c4)ccc23)cc1", "values": [
      {"measurement": "TGI", "setting": "[1]", "result": "> 100", "unit": "µM"},
      {"measurement": "TGI", "setting": "[2]", "result": "> 100", "unit": "µM"},
      {"measurement": "TGI", "setting": "[4]", "result": "> 100", "unit": "µM"},
      {"measurement": "TGI", "setting": "[5]", "result": "> 100", "unit": "µM"},
      {"measurement": "TGI", "setting": "[7]", "result": "> 100", "unit": "µM"},
      {"measurement": "TGI", "setting": "[8]", "result": "> 100", "unit": "µM"},
      {"measurement": "TGI", "setting": "[9]", "result": "> 100", "unit": "µM"},
      {"measurement": "TGI", "setting": "[10]", "result": "> 100", "unit": "µM"}
    ]},
    {"smiles": "O=C1c2cccnc2C(=O)c2c1c(C(=O)OCCN1CCCCC1)c1ccccn21", "values": [
      {"measurement": "GI50", "setting": "[1]", "result": 0.0129, "unit": "µM"},
      {"measurement": "TGI", "setting": "[1]", "result": 0.0534, "unit": "µM"},
      {"measurement": "GI50", "setting": "[2]", "result": 0.00575, "unit": "µM"},
      {"measurement": "TGI", "setting": "[2]", "result": 0.0767, "unit": "µM"},
      {"measurement": "GI50", "setting": "[3]", "result": 0.294, "unit": "µM"},
      {"measurement": "TGI", "setting": "[3]", "result": 5, "unit": "µM"},
      {"measurement": "GI50", "setting": "[4]", "result": 0.0183, "unit": "µM"},
      {"measurement": "TGI", "setting": "[4]", "result": 0.179, "unit": "µM"},
      {"measurement": "GI50", "setting": "[5]", "result": 0.0189, "unit": "µM"},
      {"measurement": "TGI", "setting": "[5]", "result": 0.188, "unit": "µM"},
      {"measurement": "GI50", "setting": "[6]", "result": 0.0723, "unit": "µM"},
      {"measurement": "TGI", "setting": "[6]", "result": 0.376, "unit": "µM"},
      {"measurement": "GI50", "setting": "[7]", "result": 0.731, "unit": "µM"},
      {"measurement": "TGI", "setting": "[7]", "result": 12.6, "unit": "µM"},
      {"measurement": "GI50", "setting": "[8]", "result": 0.0251, "unit": "µM"},
      {"measurement": "TGI", "setting": "[8]", "result": 0.113, "unit": "µM"},
      {"measurement": "GI50", "setting": "[9]", "result": 0.0135, "unit": "µM"},
      {"measurement": "TGI", "setting": "[9]", "result": 0.0867, "unit": "µM"},
      {"measurement": "GI50", "setting": "[10]", "result": 0.00554, "unit": "µM"},
      {"measurement": "TGI", "setting": "[10]", "result": 0.0313, "unit": "µM"}
    ]},
    {"smiles": "Nc1ccc(O)c2c1C(=O)c1c(N)ccc(O)c1C2=O", "values": [
      {"measurement": "TGI", "setting": "[1]", "result": "> 100", "unit": "µM"},
      {"measurement": "TGI", "setting": "[3]", "result": "> 100", "unit": "µM"},
      {"measurement": "TGI", "setting": "[4]", "result": "> 100", "unit": "µM"},
      {"measurement": "TGI", "setting": "[5]", "result": "> 100", "unit": "µM"},
      {"measurement": "TGI", "setting": "[8]", "result": "> 100", "unit": "µM"},
      {"measurement": "TGI", "setting": "[10]", "result": "> 100", "unit": "µM"}
    ]},
    {"smiles": "NC(=O)C1CCCN1C(=O)C(N)Cc1ccccc1", "note": "(stereo not drawn) (H-Phe-Pro-NH2; configuration not given here)", "values": [
      {"measurement": "TGI", "setting": "[1]", "result": "> 100", "unit": "µM"},
      {"measurement": "TGI", "setting": "[2]", "result": "> 100", "unit": "µM"},
      {"measurement": "TGI", "setting": "[3]", "result": "> 100", "unit": "µM"},
      {"measurement": "TGI", "setting": "[4]", "result": "> 100", "unit": "µM"},
      {"measurement": "TGI", "setting": "[7]", "result": "> 100", "unit": "µM"},
      {"measurement": "TGI", "setting": "[8]", "result": "> 100", "unit": "µM"},
      {"measurement": "TGI", "setting": "[10]", "result": "> 100", "unit": "µM"}
    ]},
    {"smiles": "CN(CC(=O)O)Cc1c(O)c(Cl)cc(Cl)c1Cl", "values": [
      {"measurement": "TGI", "setting": "[1]", "result": "> 100", "unit": "µM"},
      {"measurement": "TGI", "setting": "[2]", "result": "> 100", "unit": "µM"},
      {"measurement": "TGI", "setting": "[3]", "result": 50.4, "unit": "µM"},
      {"measurement": "TGI", "setting": "[4]", "result": "> 100", "unit": "µM"},
      {"measurement": "TGI", "setting": "[5]", "result": "> 100", "unit": "µM"},
      {"measurement": "TGI", "setting": "[6]", "result": "> 100", "unit": "µM"},
      {"measurement": "TGI", "setting": "[7]", "result": "> 100", "unit": "µM"},
      {"measurement": "TGI", "setting": "[8]", "result": "> 100", "unit": "µM"},
      {"measurement": "TGI", "setting": "[9]", "result": 92.1, "unit": "µM"},
      {"measurement": "TGI", "setting": "[10]", "result": "> 100", "unit": "µM"}
    ]},
    {"smiles": "CC1C(=O)CC(c2cccs2)N(N=O)C1c1cccs1", "note": "(configuration not stated)", "values": [
      {"measurement": "TGI", "setting": "[2]", "result": 88.5, "unit": "µM"},
      {"measurement": "TGI", "setting": "[3]", "result": "> 100", "unit": "µM"},
      {"measurement": "TGI", "setting": "[4]", "result": "> 100", "unit": "µM"},
      {"measurement": "TGI", "setting": "[5]", "result": "> 74", "unit": "µM"},
      {"measurement": "TGI", "setting": "[8]", "result": "> 100", "unit": "µM"},
      {"measurement": "TGI", "setting": "[9]", "result": "> 100", "unit": "µM"},
      {"measurement": "TGI", "setting": "[10]", "result": "> 100", "unit": "µM"}
    ]}
  ]
}
